Assay: Dissolution experiments on tablets (Prolabo dissolution apparatus)
Format: physicochemical
Details: for dissolution rate of the sugar matrix (Anthrone assay): tablets with diazepam, water, 37° C., 100 rpm
Description: After compaction the tablets were weighed and subsequently submitted to dissolution experiments.
Dissolution was performed on a Prolabo dissolution apparatus, Rowa Techniek B.V. All experiments were conducted at 37° C. in 1000 mL under constant stirring with 100 rpm. Tablets prepared from physical mixtures and solid dispersions were analysed in triplicate.
To determine the sugar concentrations the Anthrone assay was used. (Scott et al. 1953) Samples were taken at appropriate intervals during the dissolution. […] Due to the enthalpy of mixing, the sample was heated to its boiling point. The boiling mixture was then cooled to room temperature. After 45 minutes the sample was vortexed and […] of sample was analysed in the plate reader at 630 nm. […] In every Anthrone assay a calibration curve of the appropriate sugar in the appropriate medium was established.

CN1C(=O)CN=C(c2ccccc2)c2cc(Cl)ccc21 [diazepam, Diazepam]
release of drug from physical mixture tablets: fast compared to the solid dispersions
release of drug from solid dispersion tablets: fast release

OC[C@H]1O[C@@](CO)(O[C@H]2O[C@H](CO)[C@@H](O)[C@H](O)[C@H]2O)[C@@H](O)[C@@H]1O [sucrose]
dissolution rate of the sugar matrix (Anthrone assay): dissolve faster compared to the inulins

OC[C@H]1O[C@H](O[C@H]2O[C@H](CO)[C@@H](O)[C@H](O)[C@H]2O)[C@H](O)[C@@H](O)[C@@H]1O [trehalose]
dissolution rate of the sugar matrix (Anthrone assay): dissolve faster compared to the inulins
